Results on 17 molecules are retold here after paper PMC9623506, “Development of a novel peptide inhibitor of subtilisin BPN′” (FEBS Open Bio, 2022).

The target of test [1] is T1, subtilisin BPN′ (Bacillus amyloliquefaciens, UniProt P00782).
T1 construct: purchased Sigma-Aldrich (Tokyo, Japan)
Kind of test: biochemical. Type of test: biochemical. The settings on record: for Inhibitory activity / binding in words, by Ki: synthetic substrate N‐suc‐AAPF‐pNA, compared with prototype ASIP or single mutants. As for the experimental part:
Subtilisin BPN′ and N‐succinyl‐Ala‐Ala‐Pro‐Phe‐p‐nitroanilide (N‐suc‐AAPF‐pNA) were purchased from Sigma‐Aldrich (Tokyo, Japan). The oligopeptides used in this study were synthesized by Eurofins Genomics (Tokyo, Japan). The formation of an S‐S bond in each peptide was accomplished by incubating an equimolar amount of cystine with the peptide, and the concentrations of the oxidized peptides were determined by amino acid analyses after hydrolysis of the peptide with 6 M HCl at 110 °C for 24 h in vacuo.
The inhibitory activities of peptides against subtilisin BPN′ were preliminarily measured using the casein‐Folin method. First, casein was incubated with subtilisin BPN′ in the absence or presence of various molar ratios of synthetic peptides at 37 °C and pH 7.0 for 10 min. Trichloroacetic acid was added to the reaction mixture to precipitate the undigested casein, and the supernatant was mixed with sodium carbonate and Folin's phenol reagent. The absorbance at 660 nm was then measured to determine the amount of peptide obtained by digestion. Inhibitory activity was defined as the reduction in the amount of peptides derived from the enzymatic digestion of casein in the presence of a synthetic peptide when compared to the amount of peptides in the absence of synthetic peptides. To determine the K i values, the proteolytic activities of subtilisin BPN′ in the presence of various molar ratios of synthetic peptides were measured using a synthetic substrate, N‐suc‐AAPF‐pNA, as described previously, and then, the K i values were calculated by nonlinear curve fitting using the Morrison equation [13].

The target in test [2] is T1, subtilisin BPN′. The settings on record: against subtilisin BPN′; cited from earlier work.
In test [3] the target is T1, subtilisin BPN′. Kind of test: ASIP without a disulfide bond with subtilisin BPN′: inhibition and cleavage. Type of test: biochemical. The text has this:
To clarify the relationship between disulfide bond formation and its activity as a subtilisin inhibitor, we measured the inhibitory activities of ASIP with or without a disulfide bond. […] The inhibitory properties of the oxidized form of ASIP were then investigated.

For the next test, the target named is subtilisin Carlsberg. The settings on record: against subtilisin Carlsberg; cited from earlier work. The text has this: Table 3 Proteinaceous subtilisin inhibitors. Amino acid residue lengths, sequences from the P4 to P4′ positions, and K i values against subtilisin BPN′ or Carlsberg of the inhibitors are listed. The most conserved residues at each position are shown in bold font. Residue numbers at the P1 position are indicated by superscript numbers.

Read-outs that look alike come from different tables or passages of the source. Positions of bridges follow the written chain, without caps; N, C: chain ends. Residues, ends and D or L forms follow the SMILES beside them. No end group written: not given here.

T1 sequence (P00782 108-382): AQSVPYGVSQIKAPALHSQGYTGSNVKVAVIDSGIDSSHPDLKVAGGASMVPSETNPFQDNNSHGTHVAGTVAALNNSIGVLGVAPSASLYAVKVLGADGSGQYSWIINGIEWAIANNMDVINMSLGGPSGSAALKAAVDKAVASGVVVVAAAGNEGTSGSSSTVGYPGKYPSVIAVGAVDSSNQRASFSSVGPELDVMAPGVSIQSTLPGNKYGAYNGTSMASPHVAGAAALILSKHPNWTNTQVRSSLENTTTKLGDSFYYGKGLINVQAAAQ

A word on the Ki: it is the dissociation constant of the complex between target and ligand, obtained from inhibition or displacement. Molecule `CC(C)C[C@@H]1NC(=O)[C@@H](NC(=O)[C@H](CO)NC(=O)[C@H](Cc2ccccc2)NC(=O)[C@H](CC(=O)O)NC(=O)[C@@H](N)CO)CSSC[C@@H](C(=O)N[C@@H](CCCNC(=N)N)C(=O)N[C@H](C(=O)O)[C@@H](C)O)NC(=O)CNC(=O)[C@H](CCC(=O)O)NC(=O)[C@H](CO)NC1=O` [ASIP] (H-SDFSCLSEGCRT-OH; disulfide 5-10) registered a Ki at subtilisin BPN′ [1] of 13 ± 1.64 nM.

`CC(C)C[C@@H]1NC(=O)[C@@H](NC(=O)[C@H](CO)NC(=O)[C@H](Cc2ccccc2)NC(=O)[C@H](CC(=O)O)NC(=O)[C@@H](N)CO)CSSC[C@@H](C(=O)N[C@@H](CCCNC(=N)N)C(=O)N[C@@H](C)C(=O)O)NC(=O)CNC(=O)[C@H](CCC(=O)O)NC(=O)[C@H](C)NC1=O` [S7A + T12A] (H-SDFSCLAEGCRA-OH; disulfide 5-10) showed a Ki on subtilisin BPN′ [1] of 2.72 ± 0.04 nM.

`CC(C)C[C@@H]1NC(=O)[C@@H](NC(=O)[C@H](CO)NC(=O)[C@H](Cc2ccccc2)NC(=O)[C@H](CC(=O)O)NC(=O)[C@@H](N)CO)CSSC[C@@H](C(=O)N[C@@H](CCCNC(=N)N)C(=O)N[C@@H](CCCCN)C(=O)O)NC(=O)CNC(=O)[C@H](CCC(=O)O)NC(=O)[C@H](C)NC1=O` [S7A + T12K] (H-SDFSCLAEGCRK-OH; disulfide 5-10): the Ki at subtilisin BPN′ [1] amounted to 0.3 ± 0.02 nM.

The molecule `CC(C)C[C@@H]1NC(=O)[C@@H](NC(=O)[C@H](CO)NC(=O)[C@H](Cc2ccccc2)NC(=O)[C@H](CC(=O)O)NC(=O)[C@@H](N)CO)CSSC[C@@H](C(=O)N[C@@H](CCCNC(=N)N)C(=O)N[C@H](C(=O)O)[C@@H](C)O)NC(=O)CNC(=O)[C@H](CCC(=O)O)NC(=O)[C@H](C)NC1=O` [S7A] (H-SDFSCLAEGCRT-OH; disulfide 5-10) came in with a Ki on subtilisin BPN′ [1] of 2.58 ± 0.2 nM.

As to `CC(C)C[C@@H]1NC(=O)[C@@H](NC(=O)[C@H](CO)NC(=O)[C@H](Cc2ccccc2)NC(=O)[C@H](CC(=O)O)NC(=O)[C@@H](N)CO)CSSC[C@@H](C(=O)N[C@@H](CCCNC(=N)N)C(=O)NCC(=O)O)NC(=O)CNC(=O)[C@H](CCC(=O)O)NC(=O)CNC1=O` [S7G + T12G] (H-SDFSCLGEGCRG-OH; disulfide 5-10), at subtilisin BPN′ [1], the affinity corresponds to a Ki of 7.73 ± 0.34 nM.

Regarding `CC(C)C[C@@H]1NC(=O)[C@@H](NC(=O)[C@H](CO)NC(=O)[C@H](Cc2ccccc2)NC(=O)[C@H](CC(=O)O)NC(=O)[C@@H](N)CO)CSSC[C@@H](C(=O)N[C@@H](CCCNC(=N)N)C(=O)N[C@H](C(=O)O)[C@@H](C)O)NC(=O)CNC(=O)[C@H](CCC(=O)O)NC(=O)CNC1=O` [S7G] (H-SDFSCLGEGCRT-OH; disulfide 5-10), the Ki at subtilisin BPN′ [1] was determined as 5.14 ± 0.3 nM.

On to `CC(C)C[C@@H]1NC(=O)[C@@H](NC(=O)[C@H](CO)NC(=O)[C@H](Cc2ccccc2)NC(=O)[C@H](CC(=O)O)NC(=O)[C@@H](N)CO)CSSC[C@@H](C(=O)N[C@@H](CCCNC(=N)N)C(=O)N[C@@H](C)C(=O)O)NC(=O)CNC(=O)[C@H](CCC(=O)O)NC(=O)[C@H](CO)NC1=O` [T12A] (H-SDFSCLSEGCRA-OH; disulfide 5-10), for which, on subtilisin BPN′ [1], the Ki came to 17.4 ± 1.42 nM.

With `CC(C)C[C@@H]1NC(=O)[C@@H](NC(=O)[C@H](CO)NC(=O)[C@H](Cc2ccccc2)NC(=O)[C@H](CC(=O)O)NC(=O)[C@@H](N)CO)CSSC[C@@H](C(=O)N[C@@H](CCCNC(=N)N)C(=O)N[C@@H](CC(=O)O)C(=O)O)NC(=O)CNC(=O)[C@H](CCC(=O)O)NC(=O)[C@H](CO)NC1=O` [T12D] (H-SDFSCLSEGCRD-OH; disulfide 5-10), on subtilisin BPN′ [1], the Ki came out at 23.1 ± 3.35 nM and the “Inhibitory activity / binding in words, by Ki” value (“Inhibitory activity / binding” for short) was “decreased the inhibitory activity”.

Turning to `CC(C)C[C@@H]1NC(=O)[C@@H](NC(=O)[C@H](CO)NC(=O)[C@H](Cc2ccccc2)NC(=O)[C@H](CC(=O)O)NC(=O)[C@@H](N)CO)CSSC[C@@H](C(=O)N[C@@H](CCCNC(=N)N)C(=O)NCC(=O)O)NC(=O)CNC(=O)[C@H](CCC(=O)O)NC(=O)[C@H](CO)NC1=O` [T12G] (H-SDFSCLSEGCRG-OH; disulfide 5-10), the Ki on subtilisin BPN′ [1] was 10.6 ± 0.55 nM.

On to `CC(C)C[C@@H]1NC(=O)[C@@H](NC(=O)[C@H](CO)NC(=O)[C@H](Cc2ccccc2)NC(=O)[C@H](CC(=O)O)NC(=O)[C@@H](N)CO)CSSC[C@@H](C(=O)N[C@@H](CCCNC(=N)N)C(=O)N[C@@H](CCCCN)C(=O)O)NC(=O)CNC(=O)[C@H](CCC(=O)O)NC(=O)[C@H](CO)NC1=O` [T12K] (H-SDFSCLSEGCRK-OH; disulfide 5-10), for which, on subtilisin BPN′ [1], affinity was put at a Ki of 5.43 ± 0.29 nM; the “Inhibitory activity / binding” value is “significantly higher inhibition and binding affinity”.

`CC(C)C[C@H](NC(=O)[C@H](CCCNC(=N)N)NC(=O)[C@@H]1CSSC[C@H](NC(=O)[C@H](CO)NC(=O)[C@H](Cc2ccccc2)NC(=O)[C@H](CC(=O)O)NC(=O)[C@@H](N)CO)C(=O)N[C@@H](CC(C)C)C(=O)N[C@@H](CO)C(=O)N[C@@H](CCC(=O)O)C(=O)NCC(=O)N1)C(=O)O` [T12L] (H-SDFSCLSEGCRL-OH; disulfide 5-10) returned a Ki on subtilisin BPN′ [1] of 12.9 ± 1.02 nM.

On to `CC(C)C[C@@H]1NC(=O)[C@@H](NC(=O)[C@H](CO)NC(=O)[C@H](Cc2ccccc2)NC(=O)[C@H](CC(=O)O)NC(=O)[C@@H](N)CO)CSSC[C@@H](C(=O)N[C@@H](CCCNC(=N)N)C(=O)N[C@@H](CCCNC(=N)N)C(=O)O)NC(=O)CNC(=O)[C@H](CCC(=O)O)NC(=O)[C@H](CO)NC1=O` [T12R] (H-SDFSCLSEGCRR-OH; disulfide 5-10), for which, on subtilisin BPN′ [1], the Ki stood at 4.41 ± 0.24 nM; the “Inhibitory activity / binding” value was “significantly higher inhibition and binding affinity”.

Regarding OMTKY3: turkey ovomucoid third domain, the inhibition constant Ki in the test with subtilisin BPN′ [2] is 0.023 nM.

As to “SDFSCLSEGCRT (cysteine pairing not given here) [ASIP without a disulfide bond, ASIP without the Cys5‐Cys10 disulfide bond]”, the “Inhibitory activity against subtilisin BPN′ in words” value on subtilisin BPN′ [3] (ASIP without a disulfide bond, substrate not stated) was “lacked inhibitory activity”. The “Cleavage by subtilisin BPN′” value on subtilisin BPN′ [3] (reduced / linear form of ASIP, cleaved at the peptide bond between Leu6 and Ser7) was “specifically cleaved”.

Take marinostatin (FATMRYPSDSDE) [MST]: the Ki with subtilisin BPN′ [2] was 1.5 nM.

B1: SSI: Streptomyces subtilisin inhibitor (protein, UniProt P01006 32-144, looked up)
Subtilisin inhibitor: DAPSALYAPSALVLTVGKGVSATTAAPERAVTLTCAPGPSGTHPAAGSACADLAAVGGDLNALTRGEDVMCPMVYDPVLLTVDGVWQGKRVSYERVFSNECEMNAHGSSVFAF
For B1, the Ki in the test with subtilisin BPN′ [2] is 0.005 nM.

B2: EGL: leech eglin‐C (protein, UniProt P01051 1-70, looked up)
Eglin C: TEFGSELKSFPEVVGKTVDQAREYFTLHYPQYDVYFLPEGSPVTLDLRYNRVRVFYNPGTNVVNHVPHVG
As for B2, the Ki on subtilisin Carlsberg was 0.15 nM.
